Results published in patent publication US6943191B1, “Disubstituted lavendustin A analogs and pharmaceutical composition comprising the analogs” (The United States of America as represented by the …, priority 1998, dated 2005).
Where two headings read alike, the source gives them in different places.

What was measured:
[1] = biological target: T1, p210^bcr-abl (Homo sapiens, UniProt P00519); assay: Inhibition of in vitro auto-phosphorylation of p210^bcr-abl, immune-complex kinase assay; assay type: biochemical; details: immune complex kinase assay, 3 experiments, read-out: Enzyme Assays IC50 (μM) p210bcl-abl in vitro phosphorylation
T1 construct: immune complexes containing ^32P-labeled p210^bcr-abl were collected on protein Sepharose beads; BCR (N-terminal part of the breakpoint cluster region protein, natural fusion partner); endogenous in cells; host or cells: K562 cells (lysate, immunoprecipitated on Protein A-Sepharose); the other entry of the earlier key: BCR (P11274, Breakpoint cluster region protein)
T1 sequence (P00519 with tags, fused parts or gaps): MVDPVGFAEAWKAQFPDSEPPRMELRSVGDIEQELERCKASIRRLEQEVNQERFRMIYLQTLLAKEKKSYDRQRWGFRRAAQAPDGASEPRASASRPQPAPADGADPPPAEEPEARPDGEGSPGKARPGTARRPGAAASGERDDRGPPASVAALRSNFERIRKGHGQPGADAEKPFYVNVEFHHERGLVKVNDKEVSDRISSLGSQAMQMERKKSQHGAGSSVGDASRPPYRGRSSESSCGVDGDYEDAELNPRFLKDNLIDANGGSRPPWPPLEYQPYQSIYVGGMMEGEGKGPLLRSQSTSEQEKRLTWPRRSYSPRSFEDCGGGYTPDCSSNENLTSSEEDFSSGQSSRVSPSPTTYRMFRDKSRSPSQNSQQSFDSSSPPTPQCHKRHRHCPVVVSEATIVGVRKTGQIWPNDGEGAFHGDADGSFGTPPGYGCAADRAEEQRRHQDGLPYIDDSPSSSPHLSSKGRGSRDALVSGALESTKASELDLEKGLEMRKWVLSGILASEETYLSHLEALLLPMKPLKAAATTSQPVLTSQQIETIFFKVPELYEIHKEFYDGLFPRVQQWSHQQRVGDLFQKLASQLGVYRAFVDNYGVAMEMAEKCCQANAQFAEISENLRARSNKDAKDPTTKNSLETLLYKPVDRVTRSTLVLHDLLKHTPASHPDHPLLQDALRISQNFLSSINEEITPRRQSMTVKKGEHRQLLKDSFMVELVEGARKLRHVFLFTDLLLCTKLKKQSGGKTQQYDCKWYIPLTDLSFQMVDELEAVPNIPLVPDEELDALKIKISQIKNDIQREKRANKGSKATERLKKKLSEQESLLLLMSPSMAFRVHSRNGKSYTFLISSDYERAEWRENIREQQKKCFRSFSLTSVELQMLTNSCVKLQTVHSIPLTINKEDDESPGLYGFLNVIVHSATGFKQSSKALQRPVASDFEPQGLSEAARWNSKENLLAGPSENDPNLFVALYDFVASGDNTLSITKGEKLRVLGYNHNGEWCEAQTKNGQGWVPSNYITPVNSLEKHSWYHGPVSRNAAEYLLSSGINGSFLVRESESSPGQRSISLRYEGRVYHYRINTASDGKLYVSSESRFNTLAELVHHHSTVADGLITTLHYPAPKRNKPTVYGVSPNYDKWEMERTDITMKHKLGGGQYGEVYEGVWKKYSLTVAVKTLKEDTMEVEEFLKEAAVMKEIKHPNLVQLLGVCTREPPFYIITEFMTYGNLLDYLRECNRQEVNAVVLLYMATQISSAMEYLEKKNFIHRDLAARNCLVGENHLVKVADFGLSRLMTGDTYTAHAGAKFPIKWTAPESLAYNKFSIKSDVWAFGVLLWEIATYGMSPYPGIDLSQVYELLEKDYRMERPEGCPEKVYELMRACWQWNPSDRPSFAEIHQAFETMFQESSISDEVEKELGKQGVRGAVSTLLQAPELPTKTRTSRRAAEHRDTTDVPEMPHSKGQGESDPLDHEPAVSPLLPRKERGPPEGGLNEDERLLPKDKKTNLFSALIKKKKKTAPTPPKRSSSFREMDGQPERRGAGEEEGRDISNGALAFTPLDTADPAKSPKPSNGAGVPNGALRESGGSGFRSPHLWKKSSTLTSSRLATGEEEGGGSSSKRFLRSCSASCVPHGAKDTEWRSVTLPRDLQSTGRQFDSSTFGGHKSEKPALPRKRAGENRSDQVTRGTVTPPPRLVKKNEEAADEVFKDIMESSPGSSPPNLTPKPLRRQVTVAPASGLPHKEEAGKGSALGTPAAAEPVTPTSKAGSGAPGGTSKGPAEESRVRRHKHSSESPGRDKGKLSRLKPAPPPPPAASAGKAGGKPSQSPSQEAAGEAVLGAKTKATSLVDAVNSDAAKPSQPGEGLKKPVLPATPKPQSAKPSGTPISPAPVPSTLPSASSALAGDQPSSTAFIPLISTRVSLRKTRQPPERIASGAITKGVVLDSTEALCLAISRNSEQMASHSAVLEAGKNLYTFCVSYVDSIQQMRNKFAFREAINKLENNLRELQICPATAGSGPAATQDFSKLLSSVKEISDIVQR
Method in brief: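 p210^bcr-abl immunoprecipitated from K562 cell lysates, then incubated with compounds in 20 mM PIPES (pH 7.0)–20 mM MnCl2. Autophosphorylation started with […], 20 min at 30 °C, read by 4-20% SDS-PAGE and autoradiography.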

[2] = test system: K562 cells; assay: K562 cell culture and growth assay, 6 day MTT; assay type: cell-based, human; details: K562, 6 days, 4 or more experiments
Method in brief: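 Cells (2×10^3/well) in RPMI with 10% fetal calf serum incubated with increasing compound concentrations in DMSO, with DMSO-matched controls. Growth quantitated after 6 days by MTT reduction to formazan.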

[3] = Homo sapiens, 144 h, Table 10, mean ± S.E., read-out: IC50 (μM) 6dMTT
[4] = Table 10, mean ± S.E., read-out: IC50 (μM) 6dMTT
[5] = Homo sapiens, 144 h, Table 8, mean+S.E., read-out: IC50 (μM) 6 dMTT

IC50 ([1]; Table 10, mean ± S.E.)	IC50 ([1]; Table 8, mean+S.E.)	IC50 [2, 5]	SMILES	further results
	7.72 µM	16.4 µM	CC(C)(C)OC(=O)c1ccc(NCc2cc(O)ccc2O)cc1 [COOC(CH3)3 / H / H, 4′-t-butylbenzoate-1′-N-2,5-dihydroxybenzylamine]	
	36.6 µM	12 µM	O=C(OCc1ccccc1)c1ccc(NCc2cc(O)ccc2O)cc1 [COOCH2Ph / H / H]	
	1.22 µM		CC(C)OC(=O)c1ccc(NCc2cc(O)ccc2O)cc1Cl [COOCH(CH3)2 / Cl / H, 5′-chloro-4′-isopropylbenzoate-1′-N-2,5-dihydroxybenzylamine]	IC50 ([2]; Table 8, mean+S.E., read-out: IC50 (μM) 6 dMTT): 21.6 µM
	4.45 µM	15.1 µM	CC(C)OC(=O)c1ccc(NCc2cc(O)ccc2O)cc1 [COOCH(CH3)2 / H / H]	
	11.1 µM	9.98 µM	CC(C)C(OC(=O)c1ccc(NCc2cc(O)ccc2O)cc1)C(C)C [COOCH[CH(CH3)2]2 / H / H]	
	13.6 µM	9.75 µM	O=C(OC12CC3CC(CC(C3)C1)C2)c1ccc(NCc2cc(O)ccc2O)cc1 [Compound 6, 4′-adamantylbenzoate-1′-N-2,5-dihydroxybenzylamine]	

Further lines, the compound ahead of its results:

SMILES	IC50 ([1]; Table 10, mean ± S.E.)	IC50 ([1]; Table 8, mean+S.E.)	IC50 [2, 5]	further results
COC(=O)c1ccc(CCc2cc(O)c(Br)cc2O)cc1	4.42 ± 0.24 µM			IC50 [2, 3]: 7 ± 0.5 µM
COC(=O)c1ccc(CCC2=CC(=O)C(Br)=CC2=O)cc1	3.52 ± 0.16 µM			IC50 [2, 3]: 36.5 ± 1 µM
CC(C)OC(=O)c1ccc(CCC2=CC(=O)C(Br)=CC2=O)cc1	4.19 ± 0.07 µM			IC50 [2, 4]: 59.8 ± 0.44 µM
COC(=O)c1ccc(C=Cc2cc(O)ccc2O)cc1 [COOCH3 / 2,5-dihydoxyphenyl / CH═CH / H]	19.9 ± 9.94 µM			IC50 [2, 3]: 9.72 ± 0.49 µM
COC(=O)c1ccc(/C=C/C2=CC(=O)C=CC2=O)cc1 [COOCH3 / 2,5-quinoyl / CH═CH / H]	5.47 ± 0.22 µM			IC50 [2, 4]: 17.8 ± 0.22 µM
CC(C)OC(=O)c1ccc(CCC2=CC(=O)C=CC2=O)cc1 [COOCH(CH3)2 / 2,5-quinoyl / CH2—CH2 / H]	5.26 ± 2.09 µM			IC50 [2, 4]: 19.9 ± 0.5 µM
CC(C)C(OC(=O)c1ccc(NCC2=CC(=O)C=CC2=O)cc1)C(C)C [COOCH[CH(CH3)2]2 / H / 2,5-quinoyl]				IC50 ([1]; Table 9, mean ± S.E.): 34 ± 9.02 µM; IC50 ([2]; Table 9, mean ± S.E., read-out: IC50 (μM) 6dMTT): 38.8 ± 12.8 µM
O=C(OCC12CC3CC(CC(C3)C1)C2)c1ccc(NCc2cc(O)ccc2O)cc1 [Compound 7, 4′-4′-adamantylmethylbenzoate-1′-N-2,5-dihydroxybenzylamine]		12.6 µM	12.8 µM	
